Test results: patent US12084472B2 (Ardelyx, Inc., priority 2015, dated 2024)

target: T1, human TGR5 (Homo sapiens, UniProt Q8TDU6); test: Cell-based TGR5 assay (cAMP generation, HTRF); details: HEK293 cells stably transfected with human TGR5; cAMP by HTRF; 30 minutes at 37° C.; read-out: pEC50 Human TGR5 (converted)
T1 construct: expressed in transfected cells; host or cells: HEK293
T1 sequence (Q8TDU6 1-330): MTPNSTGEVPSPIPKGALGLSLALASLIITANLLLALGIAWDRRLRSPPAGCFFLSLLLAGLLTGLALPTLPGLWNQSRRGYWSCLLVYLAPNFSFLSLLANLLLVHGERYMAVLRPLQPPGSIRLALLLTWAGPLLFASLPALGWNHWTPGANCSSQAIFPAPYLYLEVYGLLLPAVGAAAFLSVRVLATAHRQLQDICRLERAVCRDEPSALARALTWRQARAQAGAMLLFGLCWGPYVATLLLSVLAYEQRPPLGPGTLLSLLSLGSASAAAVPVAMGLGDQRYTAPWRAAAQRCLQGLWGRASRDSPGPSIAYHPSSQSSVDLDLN
Procedure, shortened: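 Read-out was HTRF detection of cAMP, converted to concentration via a standard curve and fitted (3-parameter logistic) for pEC50 and maximal response. Agonist stimulation used HEK293 cells stably transfected with human TGR5, incubated 30 min at 37° C in IBMX-containing buffer at 0.05 nM to 10 μM compound.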

| SMILES | EC50 |
| --- | --- |
| Cc1ccc(C(C)CCCC(=O)N(CCN(C)C)C[C@H](O)[C@@H](O)[C@H](O)[C@H](O)CO)cc1CNC1(c2cnccc2-c2ccccc2OC2CC2)CC1 (stereo partly drawn) [Compound I-361, 5-{3-[({1-[4-(2-cyclopropoxyphenyl)pyridin-3-yl]cyclopropyl}amino)methyl]-4-methylphenyl}-N-[2-(dimethylamino)ethyl]-N-[(2S,3R,4R,5R)-2,3,4,5,6-pentahydroxyhexyl]hexanamide] | 126 to 1000 nM |
| COCCCN(C[C@H](O)[C@@H](O)[C@H](O)[C@H](O)CO)C(=O)CCCC(C)c1ccc(C)c(CNC2(c3cnccc3-c3ccccc3OC3CC3)CC2)c1 (stereo partly drawn) [Compound I-362, 5-{3-[({1-[4-(2-cyclopropoxyphenyl)pyridin-3-yl]cyclopropyl}amino)methyl]-4-methylphenyl}-N-(3-methoxypropyl)-N-[(2S,3R,4R,5R)-2,3,4,5,6-pentahydroxyhexyl]hexanamide] | < 100 nM |
| Cc1ccc(C(C)CCCC(=O)N(C[C@H](O)[C@@H](O)[C@H](O)[C@H](O)CO)C2CCOCC2)cc1CNC1(c2cnccc2-c2ccccc2OC2CC2)CC1 (stereo partly drawn) [Compound I-363, 5-{3-[({1-[4-(2-cyclopropoxyphenyl)pyridin-3-yl]cyclopropyl}amino)methyl]-4-methylphenyl}-N-(oxan-4-yl)-N-[(2S,3R,4R,5R)-2,3,4,5,6-pentahydroxyhexyl]hexanamide] | < 100 nM |
| Cc1ccc(C(C)CCCC(=O)N(CC(=O)N(C)C)C[C@H](O)[C@@H](O)[C@H](O)[C@H](O)CO)cc1CNC1(c2cnccc2-c2ccccc2OC2CC2)CC1 (stereo partly drawn) [Compound I-364, 5-{3-[({1-[4-(2-cyclopropoxyphenyl)pyridin-3-yl]cyclopropyl}amino)methyl]-4-methylphenyl}-N-[(dimethylcarbamoyl)methyl]-N-[(2S,3R,4R,5R)-2,3,4,5,6-pentahydroxyhexyl]hexanamide] | 126 to 1000 nM |
| CCNC(=O)CCN(C[C@H](O)[C@@H](O)[C@H](O)[C@H](O)CO)C(=O)CCCC(C)c1ccc(C)c(CNC2(c3cnccc3-c3ccccc3OC3CC3)CC2)c1 (stereo partly drawn) [Compound I-365, 5-{3-[({1-[4-(2-cyclopropoxyphenyl)pyridin-3-yl]cyclopropyl}amino)methyl]-4-methylphenyl}-N-[2-(ethylcarbamoyl)ethyl]-N-[(2S,3R,4R,5R)-2,3,4,5,6-pentahydroxyhexyl]hexanamide] | 126 to 1000 nM |
| Cc1ccc(C(C)CCCC(=O)N(CCC(=O)N(C)C)C[C@H](O)[C@@H](O)[C@H](O)[C@H](O)CO)cc1CNC1(c2cnccc2-c2ccccc2OC2CC2)CC1 (stereo partly drawn) [Compound I-366, 5-{3-[({1-[4-(2-cyclopropoxyphenyl)pyridin-3-yl]cyclopropyl}amino)methyl]-4-methylphenyl}-N-[2-(dimethylcarbamoyl)ethyl]-N-[(2S,3R,4R,5R)-2,3,4,5,6-pentahydroxyhexyl]hexanamide] | 126 to 1000 nM |
| Cc1ccc(C(C)CCCC(=O)N(CCS(C)(=O)=O)C[C@H](O)[C@@H](O)[C@H](O)[C@H](O)CO)cc1CNC1(c2cnccc2-c2ccccc2OC2CC2)CC1 (stereo partly drawn) [Compound I-369, 5-{3-[({1-[4-(2-cyclopropoxyphenyl)pyridin-3-yl]cyclopropyl}amino)methyl]-4-methylphenyl}-N-(2-methanesulfonylethyl)-N-[(2S,3R,4R,5R)-2,3,4,5,6-pentahydroxyhexyl]hexanamide] | < 100 nM |
| Cc1ccc(C(C)CCCC(=O)N(CCCS(C)(=O)=O)C[C@H](O)[C@@H](O)[C@H](O)[C@H](O)CO)cc1CNC1(c2cnccc2-c2ccccc2OC2CC2)CC1 (stereo partly drawn) [Compound I-370, 5-{3-[({1-[4-(2-cyclopropoxyphenyl)pyridin-3-yl]cyclopropyl}amino)methyl]-4-methylphenyl}-N-(3-methanesulfonylpropyl)-N-[(2S,3R,4R,5R)-2,3,4,5,6-pentahydroxyhexyl]hexanamide] | < 100 nM |
| Cc1ccc(C(C)CCCC(=O)N2CCN(CC(=O)NC[C@H](O)[C@@H](O)[C@H](O)[C@H](O)CO)CC2)cc1CNC1(c2cnccc2-c2ccccc2OC2CC2)CC1 (stereo partly drawn) [Compound I-371, 2-[4-(5-{3-[({1-[4-(2-cyclopropoxyphenyl)pyridin-3-yl]cyclopropyl}amino)methyl]-4-methylphenyl}hexanoyl)piperazin-1-yl]-N-[(2S,3R,4R,5R)-2,3,4,5,6-pentahydroxyhexyl]acetamide] | < 100 nM |

Second part, the molecule after the results:

| EC50 | SMILES |
| --- | --- |
| 1260 to 10000 nM | CC(CCCC(=O)NCCN1CCN(C(=O)NC[C@H](O)[C@@H](O)[C@H](O)[C@H](O)CO)CC1)c1ccc(Cl)c(CN(C(=O)NC[C@H](O)[C@@H](O)[C@H](O)[C@H](O)CO)C2(c3cnccc3-c3ccccc3OC3CC3)CC2)c1 (stereo partly drawn) [Compound I-372, 4-[2-(5-{4-chloro-3-[(1-{l-[4-(2-cyclopropoxyphenyl)pyridin-3-yl]cyclopropyl}{[(2S,3R,4R,5R)-2,3,4,5,6-pentahydroxyhexyl]carbamoyl}amino)methyl]phenyl}hexanamido)ethyl]-N-[(2S,3R,4R,5R)-2,3,4,5,6-pentahydroxyhexyl]piperazine-1-carboxamide] |
| < 100 nM | CCN(C[C@H](O)[C@@H](O)[C@H](O)[C@H](O)CO)C(=O)CCCC(C)c1ccc(Cl)c(COC2(c3cnccc3-c3ccccc3OC3CC3)CC2)c1 (stereo partly drawn) [Compound I-373, 5-[4-chloro-3-({1-[4-(2-cyclopropoxyphenyl)pyridin-3-yl]cyclopropoxy}methyl)phenyl]-N-ethyl-N-[(2S,3R,4R,5R)-2,3,4,5,6-pentahydroxyhexyl]hexanamide] |
| < 100 nM | CC(CCCC(=O)N(CCO)C[C@H](O)[C@@H](O)[C@H](O)[C@H](O)CO)c1ccc(Cl)c(COC2(c3cnccc3-c3ccccc3OC3CC3)CC2)c1 (stereo partly drawn) [Compound I-374, 5-[4-chloro-3-({1-[4-(2-cyclopropoxyphenyl)pyridin-3-yl]cyclopropoxy}methyl)phenyl]-N-(2-hydroxyethyl)-N-[(2S,3R,4R,5R)-2,3,4,5,6-pentahydroxyhexyl]hexanamide] |
| < 100 nM | CCN(C[C@H](O)[C@@H](O)[C@H](O)[C@H](O)CO)C(=O)CCCC(C)c1ccc(C)c(COC2(c3cnccc3-c3ccccc3OC3CC3)CC2)c1 (stereo partly drawn) [Compound I-375, 5-[3-({1-[4-(2-cyclopropoxyphenyl)pyridin-3-yl]cyclopropoxy}methyl)-4-methylphenyl]-N-ethyl-N-[(2S,3R,4R,5R)-2,3,4,5,6-pentahydroxyhexyl]hexanamide] |
| < 100 nM | Cc1ccc(C(C)CCCC(=O)N(CCO)C[C@H](O)[C@@H](O)[C@H](O)[C@H](O)CO)cc1COC1(c2cnccc2-c2ccccc2OC2CC2)CC1 (stereo partly drawn) [Compound I-376, 5-[3-({1-[4-(2-cyclopropoxyphenyl)pyridin-3-yl]cyclopropoxy}methyl)-4-methylphenyl]-N-(2-hydroxyethyl)-N-[(2S,3R,4R,5R)-2,3,4,5,6-pentahydroxyhexyl]hexanamide] |
| < 100 nM | CC(=O)N(CCCC(C)c1ccc(Cl)c(CNC2(c3cnccc3-c3ccccc3OC3CC3)CC2)c1)C[C@H](O)[C@@H](O)[C@H](O)[C@H](O)CO (stereo partly drawn) [Compound I-377, N-(4-{4-chloro-3-[({1-[4-(2-cyclopropoxyphenyl)pyridin-3-yl]cyclopropyl}amino)methyl]phenyl}pentyl)-N-[(2S,3R,4R,5R)-2,3,4,5,6-pentahydroxyhexyl]acetamide] |
| < 100 nM | CC(=O)N(CCCCC(C)c1ccc(Cl)c(CNC2(c3cnccc3-c3ccccc3OC3CC3)CC2)c1)C[C@H](O)[C@@H](O)[C@H](O)[C@H](O)CO (stereo partly drawn) [Compound I-378, N-(5-{4-chloro-3-[({1-[4-(2-cyclopropoxyphenyl)pyridin-3-yl]cyclopropyl}amino)methyl]phenyl}hexyl)-N-[(2S,3R,4R,5R)-2,3,4,5,6-pentahydroxyhexyl]acetamide] |
| 126 to 1000 nM | CC(CCCC(=O)N(C)C[C@H](O)[C@@H](O)[C@H](O)[C@H](O)CO)c1cc(Cl)c(CNC2(c3cnccc3-c3ccccc3OC3CC3)CC2)cc1Cl (stereo partly drawn) [Compound I-379, 5-{2,5-dichloro-4-[({1-[4-(2-cyclopropoxyphenyl)pyridin-3-yl]cyclopropyl}amino)methyl]phenyl}-N-methyl-N-[(2S,3R,4R,5R)-2,3,4,5,6-pentahydroxyhexyl]hexanamide] |
| 126 to 1000 nM | O=C(NCCCC(CO)c1ccc(Cl)c(CNC2(c3cnccc3-c3ccccc3OC3CC3)CC2)c1)[C@@H](O)[C@@H](O)[C@H](O)[C@@H](O)CO (stereo partly drawn) [Compound I-380, (2S,3S,4R,5S)-N-(4-[4-chloro-3-[([1-[4-(2-cyclopropoxyphenyl)pyridin-3-yl]cyclopropyl]amino)methyl]phenyl]-5-hydroxypentyl)-2,3,4,5,6-pentahydroxyhexanamide] |
| < 100 nM | C=C(CCCNC(=O)[C@@H](O)[C@@H](O)[C@H](O)[C@@H](O)CO)c1ccc(Cl)c(CNC2(c3cnccc3-c3ccccc3OC3CC3)CC2)c1 [Compound I-381, (2S,3S,4R,5S)-N-(4-[4-chloro-3-[([1-[4-(2-cyclopropoxyphenyl)pyridin-3-yl]cyclopropyl]amino)methyl]phenyl]pent-4-en-1-yl)-2,3,4,5,6-pentahydroxyhexanamide] |
| < 100 nM | O=C(NCCCC1(c2ccc(Cl)c(CNC3(c4cnccc4-c4ccccc4OC4CC4)CC3)c2)CC1)[C@@H](O)[C@@H](O)[C@H](O)[C@@H](O)CO [Compound I-382, (2S,3S,4R,5S)-N-[3-(1-[4-chloro-3-[([1-[4-(2-cyclopropoxyphenyl)pyridin-3-yl]cyclopropyl]amino)methyl]phenyl]cyclopropyl)propyl]-2,3,4,5,6-pentahydroxyhexanamide] |
